Measurements published in US6300499A, “α1-adrenergic receptor antagonists” (Societe de Conseils de Recherches et d'Applications …, priority 1998, dated 2001).

What was measured:
[1] = molecular target: α1-adrenergic receptor; test: Test of the bond to the α1-adrenergic receptor (inhibition of [3H]prazosin bond to rat cerebral cortex); format: binding, rat (male Sprague Dawley); conditions: [3H]prazosin 0.2 nM, rat cerebral cortex membranes, 30 min, 25° C., pH 7.7
Protocol: The cerebral cortices of male Sprague Dawley rats are homogenized at 4° C. in Tris-HCl 50 mM pH=7.7 and centrifuged at 50,000 g for 30 minutes at 4° C. The pellets are again suspended in the same buffer and centrifuged again at 50,000 g for 30 minutes at 4° C.
The filters are rinsed three times with the same buffer at 0-4° C. and their radioactivity is tested by liquid scintillation spectrometry.
The specific bonds are obtained by subtracting the non-specific bonds (determined in the presence of 10 μM of phentolamine (Sigma Chemical Co. St. Louis Mo.)) from the total bonds. The data relative to the bonds is analyzed by computer assisted iterative non-linear regression analysis, using the Ligand program (Munson, P. J., Rodbard, D. Anal. Biochem. 107:220 (1980)).

[2] = tested on: prostatic urethrae; test: Urethra Contraction Test (inhibition of phenylephrine contraction of prostatic urethra); parameters: species or system rabbit (male New Zealand); conditions: inhibition of contraction of rabbit prostatic urethra, agonist phenylephrine, compound 30 min before
Protocol: The urethrae are removed from male New Zealand rabibits, and cleaned of the surrounding connective tissues. Bands of prostatic urethrae (3 mm wide, 10-15 mm long) are suspended (1 g tension) in organ baths containing 10 ml of physiological solution (pH 7.4) at 37° C. under an atmosphere of 95% O2 /5% CO2; NaCl (118 mM); KCl (4.7 mM); CaCl2 (2.5 mM); KH2 PO4 (1.2 mM); MgSO4 (1.2 mM); NaHCO3 (25 mM); glucose (11 mM). The contractile responses are measured using force displacement transducers coupled to a Gould 8000S polygraph. A one hour period of equilibration or equalization is provided before the experiment. After equalization, the preparations are sensitized by a submaximal concentration of phenylephrine. Forty five minutes after the sensitization, a concentration-effect curve for the phenylephrine is established. In order to determine the effect of the test compounds, different preparations originating from the same animal are used in parallel. One preparation serves as a control whilst the others receive a concentration of a test compound introduced into the bath 30 minutes before the phenylephrine (Auguet, M. et al. European J. Pharmacol. 217:153 (1995)).
The dissociation constants (Kb) of the test compounds are determined using the following equation: Kb =[B]/(dose ratio--1); in which [B] is the concentration of test compound and (dose ratio) is the EC50 of phenylephrine in the presence of the test compound divided by the EC50 of the control preparation. These resultats are then expressed as the negative logarithm of Kb. The values of the EC50 are calculated from the maximum contractile response to the phenylephrine by computer analysis using a linear regression over the average tension values. The maximum contractile response of each preparation which was subjected to the test compound is determined by comparing the response provoked by the application of the sensitizing concentration of phenylephrine with the response provoked in the control preparation (which has not received the test compounds).

Row | Ki [1] [nM] | SMILES | -log Kb [2]
1 | 25 | Cc1ccc(C)c(N2CCN(CCCNC(=O)C(C)(O)c3ccccc3)CC2)c1 (racemic) [Compound 22, (±)-N-[3-{4-(2,5-dimethylphenyl)-1-piperazinyl}-propyl]-α-hydroxy-α-methyl-benzeneacetamide] | 8.3
2 | 31 | CCC(O)(C(=O)NCCCN1CCN(c2cc(C)ccc2C)CC1)c1ccccc1 (racemic) [Compound 27, (±)-N-[3-{4-(2,5-dimethylphenyl)-1-piperazinyl}-propyl]-2-hydroxy-2-phenyl-butyramide] | 7.6
3 | 30 | Cc1ccc(C)c(N2CCN(CCCNC(=O)C(C)c3ccccc3)CC2)c1 (racemic) [Compound 38, (±)-N-[3-{4-(2,5-dimethylphenyl)-1-piperazinyl}-propyl]-α-methyl-benzeneacetamide] | 7.5
4 | 27 | Cc1ccc(C)c(N2CCN(CCCNC(=O)C(CO)c3ccccc3)CC2)c1 (racemic) [Compound 39, (±)-N-[3-{4-(2,5-dimethylphenyl)-1-piperazinyl}-propyl]-α-hydroxymethyl-benzeneacetamide] | 7.3
5 | 22 | Cc1ccc(C)c(N2CCN(CCCNC(=O)C(C)(O)c3cccc4ccccc34)CC2)c1 (racemic) [Compound 42, (±)-N-[3-{4-(2,5dimethylphenyl)-1-piperazinyl}-propyl]-α-hydroxy-α-methyl-1-naphthaleneacetamide] | 7.68
6 | 14 | Cc1ccc(C)c(N2CCN(CCCNC(=O)C(C(=O)NCc3ccccc3)c3ccccc3)CC2)c1 (racemic) [Compound 47, (±)-N-[3-{4-(2,5-dimethylphenyl)-1-piperazinyl}-propyl]-α-benzylaminocarbonyl-benzeneacetamide] | 7.07
7 | 29 | Cc1ccc(S(=O)(=O)NC(C(=O)NCCCN2CCN(c3cc(C)ccc3C)CC2)c2ccccc2)cc1 (racemic) [Compound 48, (±)-N-[3-{4-(2,5-dimethylphenyl)-1piperazinyl}-propyl]-α-(4-methylphenyl)-sulphonylamino-benzeneacetamide] | 7.02
8 | 50 | Cc1ccc(C)c(N2CCN(CCCNC(=O)C(C)(C(=O)NCc3ccccc3)c3ccccc3)CC2)c1 (racemic) [Compound 50, (±)-N-[3-{4-(2,5-dimethylphenyl)-1-piperazinyl}-propyl]-α-benzylaminocarbonyl-α-methyl-benzeneacetamide] | 6.92
9 | 38 | COC(C(=O)NCCCN1CCN(c2cc(C)ccc2C)CC1)(c1ccccc1)c1ccccc1 [Compound 11, N-[3-{4-(2,5-dimethylphenyl)-1-piperazinyl}-propyl]-α-methoxy-α-phenyl-benzeneacetamide] | 6.9
10 | 30 | COc1ccccc1N1CCN(CCCNC(=O)C(c2ccccc2)c2ccccc2)CC1 [Compound 13, N-[3-{4-(2-methoxyphenyl)-1-piperazinyl}-propyl]-α-phenyl-benzeneacetamide] | 8.2
11 | 27 | COc1ccccc1N1CCN(CCCNC(=O)C2c3ccccc3Oc3ccccc32)CC1 [Compound 15, N-[3-{4-(2-methoxyphenyl)-1-piperazinyl}-propyl]-9H-xanthene-9-carboxamide] | 7.9
12 | 27 | Cc1ccc(C)c(N2CCN(CCCNC(=O)C(c3ccccc3)c3ccccc3)CC2)c1 [Compound 20, N-[3-{4-(2,5-dimethylphenyl)-1-piperazinyl}-propyl]-α-phenyl-benzeneacetamide] | 7.5
13 | 69 | CCSC(C(=O)NCCCN1CCN(c2cc(C)ccc2C)CC1)(c1ccccc1)c1ccccc1 [Compound 24, N-[3-{4-(2,5dimethylphenyl)-1-piperazinyl}-propyl]-α-ethylthio-α-phenyl-benzeneacetamide] | 
14 | 74 | CCC(CC)(C(=O)NCCCN1CCN(c2cc(C)ccc2C)CC1)c1ccccc1 [Compound 26, N-[3-{4-(2,5dimethylphenyl)-1-piperazinyl}-propyl]-2-ethyl-2-phenyl-butyramide] | 
15 | 90 | Cc1ccc(C)c(N2CCN(CCCN(C)C(=O)C(c3ccccc3)c3ccccc3)CC2)c1 [Compound 35, N-[3-{4-(2,5-dimethylphenyl)-1piperazinyl}-propyl]-N-methyl-α-phenyl-benzeneacetamide] | 
16 | 48 | Cc1ccc(C)c(N2CCN(CCCNC(=O)[C@](C)(O)c3ccccc3)CC2)c1 [Compound 46, R-(-)-N-[3-{4-(2,5-dimethylphenyl)-1-piperazinyl}-propyl]-α-hydroxy-α-methyl-benzeneacetamide] | 7.5

Row | SMILES | Ki [1] [nM] | -log Kb [2]
17 | Cc1ccccc1N1CCN(CCCNC(=O)C(O)(c2ccccc2)c2ccccc2)CC1 [Compound 2, α-hydroxy-N-[3-{4-(2-methylphenyl)-1-piperazinyl}-propyl]-α-phenyl-benzeneacetamide] | 30 | 8
18 | Cc1ccc(C)c(N2CCN(CCCNC(=O)C(O)(c3ccccc3)c3ccccc3)CC2)c1 [Compound 7, N-[3-{4-(2. 5-dimethylphenyl)-1-piperazinyl}-propyl]-α-hydroxy-α-phenyl-benzeneacetamide] | 30 | 8.1
19 | CCOc1ccccc1N1CCN(CCCNC(=O)C(O)(c2ccccc2)c2ccccc2)CC1 [Compound 8, N-[3-{4-(2-ethoxyphenyl)-1-piperazinyl}-propyl]-α-hydroxy-α-phenyl-benzeneacetamide] | 16 | 8.2
20 | O=C(NCCCN1CCN(c2ccccc2Cl)CC1)C(O)(c1ccccc1)c1ccccc1 [Compound 9, N-[3-{4-(2-chlorophenyl)-1-piperazinyl}-propyl]-α-hydroxy-α-phenyl-benzeneacetamide] | 28 | 8.1
21 | N#Cc1ccccc1N1CCN(CCCNC(=O)C(O)(c2ccccc2)c2ccccc2)CC1 [Compound 10, N-[3-{4-(2-cyanophenyl)-1-piperazinyl}-propyl]-α-hydroxy-α-phenyl-benzeneacetamide] | 27 | 8.2
22 | COc1ccccc1N1CCN(CCCNC(=O)C(O)(c2ccccc2)c2ccccc2)CC1 [Compound 14, α-hydroxy-N-[3-{4-(2-methoxyphenyl)-1-piperazinyl}-propyl]-α-phenyl-benzeneacetamide] | 27 | 7.8
23 | COc1ccccc1N1CCN(CCCNC(=O)C2(O)c3ccccc3-c3ccccc32)CC1 [Compound 16, 9-hydroxy-N-[3-{4-(2-methoxyphenyl)-1-piperazinyl}-propyl]-9H-fluorene-9-carboxamide] | 41 | 7.8
24 | COc1ccccc1N1CCN(CCCNC(=O)C(O)(c2ccccc2Cl)c2ccccc2Cl)CC1 [Compound 17, 2-chloro-α-(2-chlorophenyl)-α-hydroxy-N-[3-{4-(2-methoxyphenyl)-1-piperazinyl}-propyl]-α-phenyl-benzeneacetamide] | 54 | 7.7
25 | COc1ccc(C(O)(C(=O)NCCCN2CCN(c3cc(C)ccc3C)CC2)c2ccc(OC)cc2)cc1 [Compound 25, N-[3-{4-(2,5-dimethylphenyl)-1-piperazinyl}-propyl]-α-hydroxy-4-methoxy-α-(4-methoxyphenyl)-benzeneacetamide] | 29 | 7.6
